Experiment: Warming compositions evaluated by a trained sensory panel (intensity scale 0 to 5)
Conditions: flavone glycoside 1 ppm combined with capsicum oleoresin 2 ppm; for Enhancement of the warming effect of capsicum oleoresin: versus capsicum oleoresin 2 ppm alone; for Flavor Intensity: scale 0 to 5 (0=none, 1=minimal, 3=moderate, 5=intense)

| Compound | Enhancement of the warming effect of capsicum oleoresin | Flavor Intensity |
| --- | --- | --- |
| COc1ccc(-c2cc(=O)c3c(O)cc(OC4OC(COC5OC(C)C(O)C(O)C5O)C(O)C(O)C4O)cc3o2)cc1 (centres unmarked) [Formula V, acacetin 7-O-rutinoside] | enhanced | 3.5 |
| O=c1cc(-c2ccc(O)cc2)oc2cc(OC3OC(CO)C(O)C(O)C3O)cc(O)c12 (centres unmarked) [Formula II, apigenin 7-O-glucoside] | enhanced | 2.5 |
| CC1OC(OCC2OC(Oc3cc(O)c4c(=O)cc(-c5ccc(O)c(O)c5)oc4c3)C(O)C(O)C2O)C(O)C(O)C1O (centres unmarked) [Formula IV, luteolin 7-O-rutinoside] | enhanced | 2.5 |
| COc1ccc(-c2cc(=O)c3c(O)cc(OC4OC(CO)C(O)C(O)C4O)cc3o2)cc1 (centres unmarked) [Formula III, acacetin 7-O-glucoside] | enhanced | 2.5 |
